Laboratory results reported in US4971964A, “Pyridine derivatives” (priority 1988, dated 1990).

Experiments:
[1] = test system: collagen-induced ischemic ECG alterations in spontaneous hypertensive rats (SHR); assay: Test On Inhibition of Collagen-Induced Ischemic Alterations of Electrocardiogram; type: in vivo; conditions: 1 mg/kg, iv; for Change of ECG (score 0-3): mean ± standard error, N = 5 to 6
Description: Spontaneous hypertensive rats (SHR) (male; 25-30-week-old; available from Hoshino Jikken Dobutsu) were intraperitoneally anesthesized with sodium pentobarbital (60 mg/kg). Each animal was fixed on its back, a venous cannula was inserted into the left jugular vein, and electrocardiograms (ECG) in extremity leads II were taken. A solvent alone (physiological saline containing 0.05N sodium hydroxide) or the test compound (I-12Z or I-13E) dissolved in the same solvent was intravenously administered in an amount of 0.1 ml per 100 g of body weight. Three minutes later, 4.5 mg/kg of collagen III originating from the bovine skin was intravenously injected, and the changes of the ECG were observed over 10 minutes. The ischemic ECG alterations after the intravenous injection of collagen were scored based on the following system according to the method of Matsumura et al., Folia Pharmacol., Japon, and the significance of difference in scores of the control group receiving the solvent alone and the test group was examined by the U-test of Mann-Whitney.
0 . . . Changes of 0.05 mV or less in the S-T segment or the T wave
1 . . . Changes between 0.05 and 0.1 mV in the S-T segment or the T wave
2 . . . Changes of 0.1 mV or more in the S-T segment or the T wave
3 . . . Arrythmia or cardiac arrest

[2] = test system: silver nitrate-induced arteriothromboembolia in male Wistar-Shizuoka rats; assay: Test on Inhibition of Silver Nitrate-Induced Arteriothromboembolia in Rats; type: in vivo; conditions: for Number of Obstruction Case/Number of Experiments: control 23/26; for Percent Obstruction: control 88%; for percent obstruction vs control (in words): I-12Z 0.3, 1.0, or 3.0 mg/kg, I-13E 3 mg/kg
Text: Male Wistar -Shizuoka rats weighing 270±20 g were anesthetized with urethane (1.5 g/kg) intraperitoneally. Each animal was fixed on its back, and a venous cannula and an arterial cannula were inserted into the left carotid vein and the left femoral artery, respectively. An abdominal incision was made, the intestinal tract was put aside so that the descending abdominal aorta could be seen, the surrounding connective tissues were removed, the descending aorta was detached to a length of about 1 cm, and the detached descending aorta was put on a globe of 8 cm in diameter. A solvent (0.1 ml; physiological saline containing 0.05N sodium hydroxide) or a drug solution (0.1 ml) in the solvent was injected via the cannulated carotid vein per 100 g of body weight. Three minutes later, a 30% silver nitrate aqueous solution was dropped on the detached descending abdominal aorta. Five minutes later, the globe was removed, and the affected site was washed three times with physiological saline to stop the reaction. After the elapse of 30 minutes from the stopping of the reaction, the blood pressure of the femoral artery was measured, and the pressure fall was taken as an indication of obstruction of the descending arterial. Significance of the difference in degree of the obstruction between the control group (only the solvent was administered) and the test group was assayed by X^2 -assay.

[3] = test system: dd male mice; assay: Acute Toxicity Test (minimum lethal dose, MLD); type: in vivo
Description: A test compound was given to dd male mice weighing 20±1 g (3 mice per group) per os. (p.o.; 300 mg/kg) or intraperitoneally (i.p.; 100 mg/kg). The mortality after 7 days from the administration was considered to determine the minimum lethal dose (MLD).

[4] = molecular target: T1, thromboxane synthase (TXA2 synthase), bovine platelet microsome (Bos taurus, UniProt Q2KIG5); assay: Test on Inhibition of TXA2 Biosynthesis (bovine platelet microsome, TXB2 by radioimmunoassay); type: biochemical; conditions: for IC50: bovine platelet microsome, pH 7.4, prostaglandin H2 substrate
T1 construct: bovine platelet microsome; from tissue; host or cells: bovine platelets (microsome)
T1 sequence (Q2KIG5 1-533): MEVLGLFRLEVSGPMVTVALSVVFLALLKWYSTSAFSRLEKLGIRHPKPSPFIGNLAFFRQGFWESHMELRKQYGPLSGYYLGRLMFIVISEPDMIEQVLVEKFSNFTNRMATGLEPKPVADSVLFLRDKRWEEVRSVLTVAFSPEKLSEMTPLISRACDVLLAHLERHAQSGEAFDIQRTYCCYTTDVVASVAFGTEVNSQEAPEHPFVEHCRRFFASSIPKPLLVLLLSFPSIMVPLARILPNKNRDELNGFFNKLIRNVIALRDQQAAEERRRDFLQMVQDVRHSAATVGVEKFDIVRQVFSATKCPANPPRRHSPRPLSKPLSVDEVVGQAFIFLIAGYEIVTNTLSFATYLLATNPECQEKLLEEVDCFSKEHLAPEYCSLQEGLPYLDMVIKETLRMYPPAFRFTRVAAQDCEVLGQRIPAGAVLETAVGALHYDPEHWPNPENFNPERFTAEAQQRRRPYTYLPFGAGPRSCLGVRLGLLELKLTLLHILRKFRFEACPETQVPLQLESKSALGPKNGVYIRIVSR
Description: A mixture of 70 μl of bovine platelet microsome [protein: 40 μg; 100 mM tris-HCl buffer (pH=7.4)] and 10 μl of a test compound solution (100 mM tris-HCl buffer containing 10% methanol) was allowed to stand at 0° C. for 5 minutes, and 20 μl of a prostaglandin H2 solution (100 mM tris-HCl buffer supplemented with acetone containing 0.1 nmol of prostaglandin H2) was added thereto as a substrate.
The amount of thromboxane B2 (TXB2) (stable degradation product of TXA2) produced in the system was determined by radioimmunoassay [F. A. Fitzpatrick et al., Methods in Enzymology, Vol. 86, p.286 (1982)].
Inhibition of TXB2 synthesis was evaluated by IC50 (50% inhibitory concentration) or percent inhibition as calculated from equation described below, and the results obtained are shown in Table 1. [formula]

[5] = 0.5 min after collagen injection
[6] = 10 min after collagen injection
[7] = dd male mice, mortality after 7 days

Structure (SMILES) | ECG changes vs control (in words) [1] | Change of ECG (score 0-3) [1, 5] | Change of ECG (score 0-3) ([1]; 1 min after collagen injection) | Change of ECG (score 0-3) ([1]; 2 min after collagen injection) | Change of ECG (score 0-3) ([1]; 3 min after collagen injection) | Change of ECG (score 0-3) ([1]; 4 min after collagen injection) | Change of ECG (score 0-3) ([1]; 5 min after collagen injection) | Change of ECG (score 0-3) ([1]; 6 min after collagen injection) | Change of ECG (score 0-3) ([1]; 7 min after collagen injection) | Change of ECG (score 0-3) ([1]; 8 min after collagen injection) | Change of ECG (score 0-3) ([1]; 9 min after collagen injection) | Change of ECG (score 0-3) [1, 6] | Number of Obstruction Case/Number of Experiments ([2]; 1.0 mg/kg i.v.) | Percent Obstruction ([2]; 1.0 mg/kg i.v.) | Number of Obstruction Case/Number of Experiments ([2]; 3.0 mg/kg i.v.) | Percent Obstruction ([2]; 3.0 mg/kg i.v.) | percent obstruction vs control (in words) ([2]; i.v.) | Acute Toxicity (MLD) ip [3, 7] | Acute Toxicity (MLD) po [3, 7] | inhibition at 10 µM [4] | also measured
CN1C(=O)c2ccncc2/C(=C\CCCCC(=O)O)c2ccccc21 [Compound I-12Z, (Z)-11-(5-carboxypentylidene)-6-methyl-5,11-dihydropyrido[4,3-c][1]benzazepin-5(6H)-one] | significantly smaller than those in the control groups | 0.8 ± 0.5 | 0.5 ± 0.2 | 1.0 ± 0.4 | 0.8 ± 0.3 | 0.7 ± 0.2 | 0.2 ± 0.2 | 0.3 ± 0.2 | 0.5 ± 0.2 | 0.5 ± 0.2 | 0.4 ± 0.2 | 0.3 ± 0.2 | 0/5 | 0% | 1/5 | 20% | significantly lower than that of the control group | > 100 mg/kg | > 300 mg/kg |  | Number of Obstruction Case/Number of Experiments ([2]; 0.1 mg/kg i.v.): 4/6; Percent Obstruction ([2]; 0.1 mg/kg i.v.): 67%; Number of Obstruction Case/Number of Experiments ([2]; 0.3 mg/kg i.v.): 1/5; Percent Obstruction ([2]; 0.3 mg/kg i.v.): 20%; inhibition of obstruction vs comparative drugs CV-4151 and OKY-1581 (in words) ([2]; i.v.): inhibition of obstruction at lower doses as compared with the comparative drugs, CV-4151 and OKY-1581; IC50 [4]: 34 nM
COC1=Nc2ccncc2/C(=C/CCCCC(=O)O)c2ccccc21 [Compound I-13E, (E)-11-(5-Carboxypentylidene)-6-methoxy-11H-pyrido[4,3-c][2]benzazepin] | significantly smaller than those in the control groups | 0 ± 0 | 0.2 ± 0.2 | 0.2 ± 0.2 | 0.2 ± 0.2 | 0.6 ± 0.4 | 0.2 ± 0.2 | 0.4 ± 0.2 | 0.4 ± 0.2 | 0.4 ± 0.2 | 0.4 ± 0.2 | 0.2 ± 0.2 | 3/4 | 75% | 1/5 | 20% | significantly lower than that of the control group | > 100 mg/kg |  |  | Acute Toxicity (MLD) po ([3]; mouse, in vivo, 10080 min): > 300 mg/kg; IC50 [4]: 8.4 nM
O=C(O)CCCCCC1c2ccccc2NC(=O)c2cnccc21 (stereo not drawn) [Compound I-21, 5-(5-Carboxypentyl)-5,11-dihydropyrido[3,4-c][1]benzazepin-11(10H)-one] |  |  |  |  |  |  |  |  |  |  |  |  |  |  |  |  |  | > 100 mg/kg | > 300 mg/kg | 47% | 
CSC1Nc2ccccc2C(=CCCCCC(=O)O)c2ccncc21 (stereo not drawn) [Compound I-22, 5-(5-Carboxypentylidene)-11-thiomethyl-5H-10,11-dihydropyrido[3,4-c][1]benzazepin] |  |  |  |  |  |  |  |  |  |  |  |  |  |  |  |  |  | > 100 mg/kg | > 300 mg/kg | 27% | 
O=C(O)CCCCC=C1c2ccncc2CNc2ccccc21 [Compound I-23, 5-(5-carboxypentylidene)-5H-10,11-dihydropyrido[3,4-c][1]benzazepin] |  |  |  |  |  |  |  |  |  |  |  |  |  |  |  |  |  | > 100 mg/kg | > 300 mg/kg | 27% | 
